# Data published in patent publication US20110184188A1, “Insecticidal Benzenedicarboxamide Derivative” (priority 2008, published 2011).
# System: Spodoptera litura third instar larvae
# Test: Test to larva of Spodoptera litura (sweet potato leaf dip)
# Format: in vivo
# Settings: foliar, 168 h; Spodoptera litura third instar larvae, active ingredient concentration 20 ppm, seven days later, 25° C.; read-out: insect mortality
# Method: Test to Larva of Spodoptera litura
# Solvent: dimethylformamide 3 parts by weight Emulsifier: polyoxyethylene alkyl phenyl ether 1 part by weight
# In order to prepare preparations of suitable active compounds, 1 part by weight of each of the active compounds was blended with the above amount of the solvent containing the above amount of the emulsifier, and the resulting mixture was diluted to a prescribed concentration with water.
# Leaves of sweet potato were immersed in the tested liquid medication of a prescribed concentration diluted with water. After air drying of the liquid medication, the leaves were put into a petri dish of a diameter of 9 cm, and 10 Spodoptera litura third instar larvae were released in the petri dish, and the petri dish was placed in a constant temperature room of 25° C. Two days later and four days later, leaves of sweet potato were added. Seven days later, the number of dead insects was examined, and insect mortality was calculated.
# In the present test, results of 2 petri dishes for each compound were averaged.
row,SMILES,mortality at 20 ppm [%]
1,"COC(=O)CNC(=O)C(C)(C)NC(=O)c1c(Cl)cccc1C(=O)Nc1ccc(Cn2nc(C(F)(F)F)cc2C(F)(F)F)cc1C [13-121, methyl N-{2-[(4-{[3,5-bis(trifluoromethyl)-1H-pyrazol-1-yl]methyl}-2-methylphenyl)carbamoyl]-6-chlorobenzoyl)-2-methylalanyl glycinate]",100
2,"Cc1cc(Cn2cc(C(F)(F)C(F)(F)F)c(C(F)(F)C(F)(F)F)n2)ccc1NC(=O)c1cccc(Br)c1C(=O)N[C@@H](C)CS(C)(=O)=O [13-140, N^1-(4-{[3,4-bis(pentafluoroethyl)-1H-pyrazol-1-yl]methyl}-2-methylphenyl)-3-bromo-N^2-[(1S)-1-methyl-2-(methylsulfonyl)ethyl]-1,2-benzenedicarboxamide]",100
3,"CON=C(c1cn(Cc2ccc(NC(=O)c3cccc(I)c3C(=O)N[C@@H](C)CSC)c(C)c2)nc1C(F)(F)F)C(F)(F)F [13-147, 3-iodo-N^2-[(1S)-1-methyl-2-(methylthio)ethyl]-N^1-[2-methyl-4-({4-[2,2,2-trifluoro-N-methoxyethanimidoyl]-3-(trifluoromethyl)-1H-pyrazol-1-yl}methyl)phenyl]-1,2-benzenedicarboxamide]",100
4,"Cc1cc(Cn2nc(C(F)(F)C(F)(F)F)nc2C(F)(F)F)ccc1NC(=O)c1cccc(Cl)c1C(=O)NC(C)(C)C=O [14-130, 3-chloro-N^2-(1,1-dimethyl-2-oxoethyl)-N^1-(2-methyl-4-{[3-(pentafluoroethyl)-5-(trifluoromethyl)-1H-1,2,4-triazol-1-yl]methyl}phenyl)-1,2-benzenedicarboxamide]",100
5,"CSC[C@H](C)NC(=O)c1c(Cl)cccc1C(=O)Nc1ccc(CN2N=C(C(F)(F)C(F)(F)F)N(C(C)=O)C2C(F)(F)F)cc1C (stereo partly drawn) [16-6, N^1-(4-{[4-acetyl-3-(pentafluoroethyl)-5-(trifluoromethyl)-4,5-dihydro-1H-1,2,4-triazol-1-yl]methyl}-2-methylphenyl)-3-chloro-N^2-[(2S)-1-(methylsulfanyl)propan-2-yl]-1,2-benzenedicarboxamide]",100

# System: not listed separately
# Test: logP(acid) by reverse phase (C18) chromatography at pH 2.3
# Format: physicochemical
# Settings: pH 2.3
row,SMILES,chromatographic logP
1,Cc1cc(Cn2nc(C(F)(F)F)nc2C(F)(F)F)ncc1[N+](=O)[O-] [SYNTHESIS EXAMPLE 69-1],3.38
2,Cc1nc(Cn2nc(C(F)(F)C(F)(F)F)cc2C(F)(F)C(F)(F)F)ccc1N [SYNTHESIS EXAMPLE 81-2],2.83
3,Cc1nc(Cn2cc(C(F)(F)C(F)(F)F)c(C(F)(F)C(F)(F)F)n2)ccc1N [SYNTHESIS EXAMPLE 82-2],2.64
4,Cc1nc(Cn2nnc(C(F)(F)F)n2)ccc1[N+](=O)[O-] [SYNTHESIS EXAMPLE 85-1],2.85

# Same assay, conditions: pH 2.3; reverse phase (C18) chromatography, pH2.3, 0.1% phosphoric acid / acetonitrile gradient 10-95%; read-out: logP (acid)
row,SMILES,chromatographic logP
1,Cc1nc(Cn2cnc(C(F)(F)C(F)(F)C(F)(F)F)n2)ccc1N [SYNTHESIS EXAMPLE 84-2],1.52
2,Cc1nc(Cn2nnc(C(F)(F)C(F)(F)C(F)(F)F)n2)ccc1[N+](=O)[O-] [SYNTHESIS EXAMPLE 86-1],3.78
3,Cc1nc(Cn2nnc(C(F)(F)C(F)(F)C(F)(F)F)n2)ccc1N [SYNTHESIS EXAMPLE 86-2],2.3

# Same assay, conditions: reverse phase (C18) chromatography column, pH 2.3; reverse phase (C18) chromatography, pH2.3, 0.1% phosphoric acid / acetonitrile gradient 10-95%; read-out: logP (acid)
row,SMILES,chromatographic logP
1,Cc1cc(COS(C)(=O)=O)ncc1[N+](=O)[O-] [SYNTHESIS EXAMPLE 68-1],1.49
2,Cc1cc(Cn2nc(C(F)(F)F)cc2C(F)(F)F)ncc1[N+](=O)[O-] [SYNTHESIS EXAMPLE 68-2],3.64
3,Cc1nc(Cn2nc(C(F)(F)C(F)(F)F)cc2C(F)(F)C(F)(F)F)ccc1[N+](=O)[O-] [SYNTHESIS EXAMPLE 81-1],4.68
4,Cc1nc(Cn2cc(C(F)(F)C(F)(F)F)c(C(F)(F)C(F)(F)F)n2)ccc1[N+](=O)[O-] [SYNTHESIS EXAMPLE 82-1],4.5
5,Cc1nc(Cn2cnc(C(F)(F)C(F)F)n2)ccc1N [SYNTHESIS EXAMPLE 83-2],0.55
6,Cc1nc(Cn2nnc(C(F)(F)F)n2)ccc1N [SYNTHESIS EXAMPLE 85-2],1.18

# Same assay, conditions: reverse phase (C18) chromatography, pH 2.3
row,SMILES,logP (acid)
1,Cc1nc(Cn2nc(C(F)(F)F)nc2C(F)(F)F)ccc1NC(=O)c1cccc(S(=O)(=O)N(C)C)c1C(=O)N[C@@H](C)C[S+](C)[O-] (stereo partly drawn) [14-367],logP (acid) 2.25
2,Cc1nc(Cn2nc(C(F)(F)F)nc2C(F)(F)F)ccc1NC(=O)c1cccc(S(C)(=O)=O)c1C(=O)N[C@@H](C)CS(C)(=O)=O [14-368],logP (acid) 2.43
3,Cc1nc(Cn2nc(C(F)(F)F)nc2C(F)(F)F)ccc1NC(=O)c1cccc(S(=O)(=O)N(C)C)c1C(=O)N[C@@H](C)CS(C)(=O)=O [14-369],logP (acid) 2.72
4,CSC[C@H](C)NC(=O)c1c(C(=O)Nc2ccc(Cn3nc(C(F)(F)C(F)(F)F)nc3C(F)(F)F)cc2C)cccc1S(=O)(=O)N(C)C [14-384],logP (acid) 3.88
5,CSC[C@H](C)NC(=O)c1c(SC)cccc1C(=O)Nc1ccc(Cn2nc(C(F)(F)C(F)(F)F)nc2C(F)(F)C(F)(F)F)nc1C [14-387],logP (acid) 4.33
6,CSC[C@H](C)NC(=O)c1c(SC)cccc1C(=O)Nc1ccc(Cn2nc(C(F)(F)C(F)(F)F)n(C(F)F)c2=O)cc1C [14-389],logP (acid) 3.53
7,CSC[C@H](C)NC(=O)c1c(C(=O)Nc2ccc(Cn3nc(C(F)(F)C(F)(F)F)nc3C(F)(F)F)nc2C)cccc1S(C)(=O)=O [14-393],logP (acid) 3.34
8,Cc1nc(Cn2nc(C(F)(F)C(F)(F)F)nc2C(F)(F)F)ccc1NC(=O)c1cccc(S(C)(=O)=O)c1C(=O)N[C@@H](C)C[S+](C)[O-] (stereo partly drawn) [14-394],logP (acid) 2.39
9,Cc1cc(Cn2nc(C(F)(F)C(F)(F)F)nc2C(F)(F)F)ccc1NC(=O)c1cccc(S(=O)(=O)N(C)C)c1C(=O)N[C@@H](C)CS(C)(=O)=O [14-395],logP (acid) 3.13
10,Cc1nc(Cn2nc(C(F)(F)C(F)(F)F)nc2C(F)(F)F)ccc1NC(=O)c1cccc(S(C)(=O)=O)c1C(=O)N[C@@H](C)CS(C)(=O)=O [14-396],logP (acid) 2.76
11,CSC[C@H](C)NC(=O)c1c(SC)cccc1C(=O)Nc1ccc(Cn2nc(C(F)(F)C(F)F)nc2C(F)(F)F)nc1C [14-397],logP (acid) 3.49
12,CSC[C@H](C)NC(=O)c1c(C(=O)Nc2ccc(Cn3nc(C(F)(F)F)nc3C(F)(F)F)cc2C)cccc1S(=O)(=O)N(C)C [14-414],logP (acid) 3.54
13,CSC[C@H](C)NC(=O)c1c(SC)cccc1C(=O)Nc1cnc(Cn2nc(C(F)(F)F)nc2C(F)(F)F)cc1C [14-415],logP (acid) 3.3
14,CSC[C@H](C)NC(=O)c1c(Cl)cccc1C(=O)Nc1ccc(Cn2nc(C(F)(F)C(F)(F)F)n(N)c2=O)cc1C [14-421],logP (acid) 2.79
15,Cc1cc(Cn2nc(C(F)(F)C(F)(F)F)n(N)c2=O)ccc1NC(=O)c1cccc(Cl)c1C(=O)N[C@@H](C)C[S+](C)[O-] (stereo partly drawn) [14-422],logP (acid) 1.82
16,Cc1cc(Cn2nc(C(F)(F)C(F)(F)F)n(N)c2=O)ccc1NC(=O)c1cccc(Cl)c1C(=O)N[C@@H](C)CS(C)(=O)=O [14-423],logP (acid) 2.13

# System: not given
# Test: not given
# Settings: not given
row,SMILES,melting point [°C]
1,CCN(CC)C(=O)c1c(Cl)cccc1C(=O)Nc1ccc(Cn2nc(C(F)(F)F)cc2C(F)(F)F)cc1C,105 to 107
2,Cc1cc(Cn2nc(C(F)(F)F)cc2C(F)(F)F)ccc1NC(=O)c1ccccc1C(=O)NC(C)C,170 to 172
3,Cc1cc(Cn2nc(C(F)(F)F)cc2C(F)(F)F)ccc1NC(=O)c1cccc(Cl)c1C(=O)NC(C)(C)C(=O)O,179 to 184
4,CCC(C)NC(=O)c1c(Cl)cccc1C(=O)Nc1ccc(Cn2nc(C(F)(F)F)cc2C(F)(F)F)cc1C (stereo not drawn),187 to 188
5,CCC(C)NC(=O)c1cccc(Cl)c1C(=O)Nc1ccc(Cn2nc(C(F)(F)F)cc2C(F)(F)F)cc1C (stereo not drawn),211 to 212
6,Cc1cc(Cn2nc(C(F)(F)C(F)(F)F)nc2C(F)(F)F)ccc1NC(=O)c1cccc(Cl)c1C(=O)NC(C)(C)CO,105 to 110
7,Cc1cc(Cn2nc(C(F)(F)C(F)(F)F)nc2C(F)(F)F)ccc1NC(=O)c1cccc(Cl)c1C(=O)NC(C)(C)C=NO,203 to 206
8,CSC[C@H](C)NC(=O)c1c(Cl)cccc1C(=O)Nc1ccc(Cn2c(C)nnc2C(F)(F)F)cc1C,168 to 170
9,Cc1cc(Cn2nc(C(F)(F)C(F)(F)F)nc2C(F)(F)F)ccc1NC(=O)c1cccc(-c2cc(C(F)(F)F)cc(C(F)(F)F)c2)c1C(=O)N[C@@H](C)CS(C)(=O)=O,201
10,CC(C)NC(=O)c1ccccc1C(=O)Nc1ccc(Cn2nc(C(F)(F)F)cc2C(F)(F)F)cc1,176 to 178

# System: not listed separately
# Test: logP(neutral) by reverse phase chromatography, potassium dihydrogen phosphate / acetonitrile
# Format: physicochemical
# Settings: 0.0025M potassium dihydrogen phosphate aqueous solution / acetonitrile, linear gradient 10-95% acetonitrile
row,SMILES,logP (neutral)
1,CSC[C@H](C)NC(=O)c1c(C(=O)Nc2ccc(Cn3nc(C(F)(F)F)cc3C(F)(F)F)nc2C)ccc(F)c1Br [9-10],logP (neutral) 3.74
2,Cc1cc(Cn2nc(C(F)(F)C(F)(F)F)nc2C(F)(F)F)ccc1NC(=O)c1ccc(C(F)(F)F)c(Cl)c1C(=O)N[C@@H](C)C[S+](C)[O-] (stereo partly drawn) [9-24],logP (neutral) 3.13

# Same assay, conditions: potassium dihydrogen phosphate / acetonitrile
row,SMILES,logP (neutral)
1,Cc1nc(Cn2cc(C(F)(F)C(F)(F)F)c(C(F)(F)C(F)(F)F)n2)ccc1NC(=O)c1cccc(I)c1C(=O)NC(C)C[S+](C)[O-] (mixture of isomers) [13-159],3.08
2,Cc1nc(Cn2nc(C(F)(F)F)cc2C(F)(F)F)ccc1NC(=O)c1cc(Cl)cc(Cl)c1C(=O)N[C@@H](C)CS(C)(=O)=O [10-3],3.10
